# Patent US6521654B2, “Substituted imidazolidine derivatives, their preparation, their use and pharmaceutical preparations including them” (Aventis Pharma Deutschland GmbH, priority 1997, dated 2003)
# Molecular target: T1, interaction between VCAM-1 and VLA-4 (Homo sapiens, UniProt P05556+P13612)
# T1 construct: supplied in their natural form as surface molecules on human U937 cells; host or cells: U937 cells carry endogenous VLA-4; The partner hVCAM-1(1-3)-IgG was made in house in transfected COS cells (ATCC CRL1651) and used as culture supernatant
# T1 sequence (P13612 34-1032): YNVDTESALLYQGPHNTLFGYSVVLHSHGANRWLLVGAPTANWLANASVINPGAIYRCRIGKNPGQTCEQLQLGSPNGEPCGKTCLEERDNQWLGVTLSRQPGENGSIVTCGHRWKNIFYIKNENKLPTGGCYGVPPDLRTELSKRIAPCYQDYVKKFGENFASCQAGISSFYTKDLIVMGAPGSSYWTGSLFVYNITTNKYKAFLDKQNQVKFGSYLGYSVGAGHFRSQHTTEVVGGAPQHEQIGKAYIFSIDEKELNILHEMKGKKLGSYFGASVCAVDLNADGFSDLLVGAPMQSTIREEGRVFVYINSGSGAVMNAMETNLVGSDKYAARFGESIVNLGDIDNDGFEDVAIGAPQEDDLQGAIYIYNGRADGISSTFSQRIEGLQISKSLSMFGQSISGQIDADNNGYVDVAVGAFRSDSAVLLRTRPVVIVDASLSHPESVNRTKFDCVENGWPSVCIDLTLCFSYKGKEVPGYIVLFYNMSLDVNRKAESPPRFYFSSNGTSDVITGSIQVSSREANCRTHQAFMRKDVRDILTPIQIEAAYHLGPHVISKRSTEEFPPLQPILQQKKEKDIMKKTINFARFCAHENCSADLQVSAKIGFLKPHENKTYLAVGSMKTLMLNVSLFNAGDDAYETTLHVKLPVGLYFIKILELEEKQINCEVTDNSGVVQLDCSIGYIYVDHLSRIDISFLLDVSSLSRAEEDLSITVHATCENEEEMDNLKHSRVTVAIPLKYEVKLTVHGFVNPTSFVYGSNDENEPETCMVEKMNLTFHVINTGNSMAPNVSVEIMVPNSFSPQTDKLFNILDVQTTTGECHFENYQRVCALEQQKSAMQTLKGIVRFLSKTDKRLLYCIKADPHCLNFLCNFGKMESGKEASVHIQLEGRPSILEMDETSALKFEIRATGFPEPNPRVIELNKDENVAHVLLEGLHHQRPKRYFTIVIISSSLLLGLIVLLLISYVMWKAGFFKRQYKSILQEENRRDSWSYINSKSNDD
# T1 sequence (P05556 21-798): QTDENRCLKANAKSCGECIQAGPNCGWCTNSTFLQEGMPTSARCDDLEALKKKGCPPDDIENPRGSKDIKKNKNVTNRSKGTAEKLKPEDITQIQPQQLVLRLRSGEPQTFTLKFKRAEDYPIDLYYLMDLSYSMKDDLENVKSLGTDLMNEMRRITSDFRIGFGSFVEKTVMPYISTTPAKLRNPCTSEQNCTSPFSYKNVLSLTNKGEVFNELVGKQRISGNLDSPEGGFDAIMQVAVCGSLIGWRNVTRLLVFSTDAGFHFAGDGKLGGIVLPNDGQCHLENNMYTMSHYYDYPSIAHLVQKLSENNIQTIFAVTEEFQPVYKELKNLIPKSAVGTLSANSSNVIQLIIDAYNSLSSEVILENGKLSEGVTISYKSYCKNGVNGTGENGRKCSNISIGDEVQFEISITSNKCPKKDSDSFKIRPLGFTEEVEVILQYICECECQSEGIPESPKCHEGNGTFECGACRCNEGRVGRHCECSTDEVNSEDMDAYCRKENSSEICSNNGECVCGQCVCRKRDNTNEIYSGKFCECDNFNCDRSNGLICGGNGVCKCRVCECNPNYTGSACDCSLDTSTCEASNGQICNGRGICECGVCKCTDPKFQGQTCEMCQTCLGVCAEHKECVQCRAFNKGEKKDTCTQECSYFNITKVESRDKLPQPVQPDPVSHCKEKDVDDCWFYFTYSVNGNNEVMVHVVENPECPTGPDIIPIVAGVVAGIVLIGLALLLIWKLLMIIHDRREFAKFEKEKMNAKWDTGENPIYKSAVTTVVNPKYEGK
# Experiment: U937/VCAM-1 cell adhesion test (adhesion of U937 cells to hVCAM-1(1-3)-IgG)
# Format: cell-based
# Conditions: concentration leading to 50% inhibition of adhesion of human U937 cells (ATCC CRL 1593) to hVCAM-1(1-3)-IgG
# Source text: The test method used for the activity of the compounds of the formula I on the interaction between VCAM-1 and VLA-4 is the assay described below which is specific for this interaction. The cellular binding components, i.e., the VLA-4 integrins, are supplied in their natural form as surface molecules on human U937 cells (ATCC CRL 1593). which belong to the leucocytes group. The specific binding components used are genetically engineered recombinant soluble fusion proteins, consisting of the extracytoplasmatic domain of human VCAM-1 and the constant region of a human immunoglobulin of the subclass IgG1.
# Assay for the Measurement of the Adhesion of U937 Cells (ATCC CRL 1593) to hVCAM-1(1-3)-IgG
# 1. Preparation of Human VCAM-1 (1-3)-IgG and Human CD4-IgG
# A genetic construct for the expression of the extracellular domain of human VCAM-1, associated with the genetic sequence of the heavy chain of human immunoglobulin IgG1 (hinge, CH2 and CH3 regions), from Dr. Brian Seed, Massachusetts General Hospital. Boston, USA was employed (cf. Damle and Aruffo, Proc. Natl. Acad. Sci. USA 1991, 88, 6403-6407). The soluble fusion protein hVCAM-1(1-3)-IgG contained the three amino-terminal extracellular immunoglobulin-like domains of human VCAM-1 (Damle and Aruffo, Proc. Natl. Acad. Sci. USA 1991, 88, 6403-6407). CD4-IgG (Zettimeissl et al., DNA and Cell Biology 1990, 9, 347) served as a fusion protein for negative controls. The recombinant proteins were expressed as soluble proteins after DEAE/dextran-mediated DNA transfection in COS cells (ATCC CRL1651) according to standard procedures (Ausubel et al., Current Protocols in Molecular Biology, John Wiley & Sons, Inc., 1994).
# 2. Assay for the Measurement of the Adhesion of U937 Cells to hVCAM-1 (1-3)-IgG
# 2.1 96-well microtiter test plates (Nunc Maxisorb) were incubated at room temperature for 1 hour with 100 μl/well of a goat-anti-human IgG antibody solution (10 μg/ml in 50 mM tris, pH 9.5). After removal of the antibody solution, washing was carried out once with PBS.
# 2.2 150 μl/well of a blocking buffer (1% BSA in PBS) were incubated on the plates at room temperature for 0.5 hour. After removal of the blocking buffer, washing was carried out once with PBS.
# 2.3 100 μl per well of a cell culture supernatant of transfected COS cells were incubated on the plates at room temperature for 1.5 hours. The COS cells were transfected with a plasmid which codes for the three N-terminal immunoglobulin-like domains of VCAM-1, coupled to the Fc part of human IgG1 (hVCAM-1 (1-3)-IgG). The content of hVCAM-1 (1-3)-IgG was about 0.5-1 μg/ml. After removal of the culture supernatant, washing was carried out once with PBS.
# 2.4 The plates were incubated at room temperature for 20 minutes with 100 μl/well of Fc receptor blocking buffer (1 mg/ml of γ-globulin, 100 mM NaCl, 100 μM MgCl2, 100 μM MnCl2, 100 μM CaCl2, 1 mg/ml of BSA in 50 mM HEPES, pH 7.5). After removal of the Fc receptor blocking buffer, washing was carried out once with PBS.
# 2.5 20 μl of binding buffer (100 mM NaCl, 100 μM MgCl2, 100 μM MnCl2, 100 μM CaCl2, 1 mg/ml of BSA in 50 mM HEPES, pH 7.5) were initially introduced, and the substances to be tested were added in 10 μl of binding buffer and incubated for 20 minutes. The controls used were antibodies against VCAM-1 (BBT, No. BBA6) and against VLA-4 (immunotech, No. 0764).
# 2.6 U937 cells were incubated in Fc receptor blocking buffer for 20 minutes and then added by pipette in a concentration of 1×10^6/ml and in an amount of 100 μl per well ([…]).
# 2.7 The plates were slowly immersed at an angle of 45° in stop buffer (100 mM NaCl, 100 μM MgCl2, 100 μM MnCl2, 100 μM CaCl2 in 25 mM tris, pH 7.5) and shaken off. The process was repeated.
# 2.8 50 μl/well of a dye solution (16.7 μg/ml of Hoechst Dye 33258, 4% formaldehyde, 0.5% triton X-100 in PBS) were then incubated on the plates for 15 minutes. […]
row,SMILES,IC50 [nM]
1,"Cc1ccccc1NC(=O)Nc1ccc(CN2CC(=O)N(CC(=O)N[C@H](C)CC(=O)O)C2=O)cc1 [Example 26, (R)-3-(2-(3-(4-(3-(2-Methylphenyl)ureido)benzyl)-2,5-dioxoimidazolidin-1-yl)-acetylamino)-3-methylpropionic Acid]",2900
2,"COc1ccc([C@H](CC(=O)O)NC(=O)C(CC(C)C)N2C(=O)N(Cc3ccc(NC(=O)Nc4ccccc4C)cc3)C(C)(c3ccccc3)C2=O)c(OC)c1 (mixture of isomers) [Example 189, (S)-3-((RS)-2-((RS)-4-Methyl-4-phenyl-3-(4-(3-(2-methylphenyl)ureido)benzyl)-2,5-dioxoimidazolidin-1-yl)-2-(2-methylpropyl)acetylamino)-3-(2,4-dimethoxyphenyl)propionic Acid]",50
3,"Cc1ccccc1NC(=O)Nc1ccc(CN2C(=O)N([C@@H](CC(C)C)C(=O)NCC(=O)O)C(=O)C2(C)C)cc1 [Example 10, 2-((S)-2-(4,4-Dimethyl-3-(4-(3-(2-methylphenyl)ureido)benzyl)-2,5-dioxoimidazolidin-1-yl)-2-(2-methylpropyl)acetylamino)acetic Acid]",600
4,"Cc1ccccc1NC(=O)Nc1ccc(CN2C(=O)N([C@@H](CC(C)C)C(=O)NCCC(=O)O)C(=O)C2(C)C)cc1 [Example 16, 3-((S)-2-(4,4-Dimethyl-3-(4-(3-(2-methylphenyl)ureido)benzyl)-2,5-dioxoimidazolidin-1-yl)-2-(2-methylpropyl)acetylamino)propionic Acid]",55
5,Cc1ccccc1NC(=O)Nc1ccc(CN2C(=O)N([C@@H](CC(C)C)C(=O)N[C@@H](CC(=O)O)c3ccc4ccccc4c3)C(=O)C2(C)C)cc1 [Example 184],4
6,CC(C)C[C@@H](C(=O)N[C@@H](CC(=O)O)C(=O)N[C@H](C(=O)O)c1ccccc1)N1C(=O)N(Cc2ccc(NC(=O)Nc3ccc(F)cc3)cc2)C(C)(C)C1=O [Example 49],13
7,"C[C@H](CC(=O)O)NC(=O)CN1C(=O)CN(Cc2ccc(NC(=O)Nc3ccccc3Cl)cc2)C1=O [Example 30, (R)-3-(2-(3-(4-(3-(2-Chlorophenyl)ureido)benzyl)-2,5-dioxoimidazolidin-1-yl)-acetylamino)-3-methylpropionic Acid]",580
8,Cc1ccccc1NC(=O)Nc1ccc(CN2C(=O)N(C(CC(C)C)C(=O)N[C@@H](CC(=O)O)C(=O)N[C@H](C(=O)OC(C)(C)C)c3ccccc3)C(=O)C2(C)c2ccccc2)cc1 (mixture of isomers) [Example 219],175
9,Cc1ccccc1NC(=O)Nc1ccc(CN2C(=O)N(C(CC(C)C)C(=O)NC(CC(=O)O)c3ccc(F)cc3)C(=O)C2(C)c2ccccc2)cc1 (centres unmarked) [Example 216],50
10,Cc1ccccc1NC(=O)Nc1ccc(CN2C(=O)N([C@@H](CC(C)C)C(=O)N[C@@H](CC(=O)O)c3ccc(-c4ccccc4)cc3)C(=O)C2(C)C)cc1 [Example 185],11
11,COc1ccccc1NC(=O)Nc1ccc(CN2C(=O)N([C@@H](CC(C)C)C(=O)N[C@@H](CC(=O)O)C(=O)N[C@H](C(=O)O)c3ccccc3)C(=O)C2(C)C)cc1 [Example 61],24.5
12,"Cc1ccccc1NC(=O)Nc1ccc(CN2C(=O)N(CC(=O)N(C)[C@@H](CC(=O)O)C(=O)O)C(=O)C2(C)C)cc1 [Example 28, (2-(4,4-Dimethyl-3-(4-(3-(2-methylphenyl)ureido)benzyl)-2,5-dioxoimidazolidin-1-yl)-acetyl)-N-methyl-L-aspartic Acid]",110
13,Cc1ccccc1NC(=O)Nc1ccc(CN2C(=O)N(C(CC(C)C)C(=O)NC(CC(=O)O)c3c(F)cccc3F)C(=O)C2(C)c2ccccc2)cc1 (centres unmarked) [Example 205],95
14,"CC(C)C[C@@H](C(=O)N[C@H](C)CC(=O)O)N1C(=O)N(Cc2ccc(NC(=O)Nc3ccccc3)cc2)C(C)(C)C1=O [Example 6, (R)-3-((S)-2-(4,4-Dimethyl-3-(4-(3-phenylureido)benzyl)2,5-dioxoimidazolidin-1-yl)-2-(2-methylpropyl)acetylamino)-3-methylpropionic Acid]",30
15,"Cc1ccccc1NC(=O)Nc1ccc(CN2C(=O)N([C@@H](CC(C)C)C(=O)NC(CC(=O)O)c3ccccc3)C(=O)C2(C)C)cc1 (mixture of isomers) [Example 196, (RS)-3-((S)-2-(4,4-Dimethyl-3-(4-(3-(2-methylphenyl)ureido)benzyl)-2,5-dioxoimidazolidin-1-yl)-2-(2-methylpropyl)acetylamino)-3-phenylpropionic Acid]",25
16,"CC(C)CC(C(=O)N[C@@H](CC(=O)O)C(=O)N[C@H](C(=O)O)c1ccccc1)N1C(=O)N(Cc2ccc(NC(=O)Nc3ccccc3)cc2)C(C)(c2ccccc2)C1=O (mixture of isomers) [Example 1, ((RS)-2-((RS)-4-Phenyl-3-(4-(3-phenylureido)benzyl)-4-methyl-2,5-dioxoimidazolidin-1-yl)-2-(2-methylpropyl)acetyl)-L-aspartyl-L-phenylglycine]",4
17,CN(C(=O)CN1C(=O)N(Cc2ccc(NC(=O)Nc3ccccc3)cc2)C(C)(C)C1=O)[C@@H](CC(=O)O)C(=O)NC1C2CC3CC(C2)CC1C3 (some centres unmarked) [Example 23],16
18,"Cc1ccccc1NC(=O)Nc1ccc(CN2C(=O)N(CC(=O)NCCC(=O)O)C(=O)C2(C)C)cc1 [Example 15, 3-(2-(4,4-Dimethyl-3-(4-(3-(2-methylphenyl)ureido)benzyl)-2,5-dioxoimidazolidin-1-yl)acetylamino)propionic Acid]",30
19,"Cc1ccccc1NC(=O)Nc1ccc(CN2C(=O)N([C@@H](CC(C)C)C(=O)N[C@@H](CC(=O)O)C(=O)O)C(=O)C2(C)C)cc1 [Example 27, ((S)-2-(4,4Dimethyl-3-(4-(3-(2-methylphenyl)ureido)benzyl)-2,5-dioxoimidazolidin-1-yl)-2-(2-methylpropyl)acetyl)-L-aspartic Acid]",27
20,Cc1ccccc1NC(=O)Nc1ccc(CN2C(=O)N([C@@H](CC(C)C)C(=O)N[C@@H](CC(=O)O)c3cccc4ccccc34)C(=O)C2(C)C)cc1 [Example 186],2.9
21,COC(=O)c1ccccc1NC(=O)Nc1ccc(CN2C(=O)N(CC(=O)N[C@H](C)CC(=O)O)C(=O)C2(C)C)cc1 [Example 38],400
22,"CCCCS(=O)(=O)NC(CNC(=O)C(CC(C)C)N1C(=O)N(Cc2ccc(NC(=O)Nc3ccccc3C)cc2)C(C)(c2ccccc2)C1=O)C(=O)O (racemic) [Example 195, (RS)-2-Butylsulfonylamino-3-((RS)-2-((RS)-4-methyl-4-phenyl-3-(4-(3-(2-methyl-phenyl)ureido)benzyl)-2,5-dioxoimidazolidin-1-yl)-2-(2-methylpropyl)acetylamino)propionic Acid]",23
23,"Cc1ccccc1NC(=O)Nc1ccc(CN2C(=O)N([C@@H](CC(C)C)C(=O)N[C@H](C)CC(=O)O)C(=O)C2(C)C)cc1 [Example 8, (R)-3-((S)-2-(4,4-Dimethyl-3-(4-(3-(2-methylphenyl)ureido)benzyl)-2,5-dioxoimidazolidin-1-yl)-2-(2-methylpropyl)acetylamino)-3-methylpropionic Acid]",3.8
